Measurements taken from patent US4740233A, “Substituted 1,2,4-triazolo[1,5-a]-pyrimidine-2-sulfonamides and compositions and methods of controlling undesired vegetation and suppressing the nitrification of ammonium nitrogen in soil” (The Dow Chemical Company, priority 1986, dated 1988).

Assays:
[1] = test system: jimsonweed; assay: Postemergent control of plant species; type: in vivo, Datura stramonium; settings: Datura stramonium, post-emergence, 336 h, read-out: percent postemergent control
In short: (§1)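 Growth reduction versus untreated plants of each species, scored about two weeks after spraying, defines control here. Test emulsions contained compound in acetone diluted 1:1 into water bearing 0.1% surfactant; plants were treated at the 2-4 leaf stage in the greenhouse.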

[2] = test system: sprangletop; assay: Control of aquatic plant species (paddy water); type: in vivo, Leptochloa filiformis; settings: Leptochloa filiformis, 216 h, nine days, read-out: Percent control; for pest or weed control at 1000 g/ha: 1.0 Kg/Ha
Experimental: (§2) In testing for such utility, the plant species to be tested were transplanted into 16 oz. containers into about 2 inches of soil when they were in the 1-2 inch stage and then flooded to a depth of about 1 inch. An acetone concentrate of the chemical to be tested was then injected into the paddy water, the volume injected being varied as desired to provide the desired concentration. Percent control was evaluated nine days after application.

[3] = test system: wheat; assay: Postemergent control of plant species; type: in vivo, Triticum aestivum; settings: Triticum aestivum, post-emergence, 336 h, read-out: percent postemergent control
In short: as §1

[4] = test system: yellow foxtail; assay: Postemergent control of plant species; type: in vivo, Setaria lutescens; settings: Setaria, post-emergence, 336 h, read-out: percent postemergent control
In short: as §1

[5] = test system: rice; assay: Postemergent control of plant species; type: in vivo, Oryza sativa; settings: Oryza sativa, post-emergence, 336 h, read-out: percent postemergent control
In short: as §1

[6] = test system: cotton; assay: Postemergent control of plant species; type: in vivo, Gossypium spp.; settings: Gossypium hirsutum, post-emergence, 336 h, read-out: percent postemergent control
In short: as §1

[7] = test system: annual morning glory; assay: Postemergent control of plant species; type: in vivo, Ipomoea spp.; settings: Ipomoea, post-emergence, 336 h, read-out: percent postemergent control
In short: as §1

[8] = test system: yellow nutsedge; assay: Postemergent control of plant species; type: in vivo, Cyperus esculentus; settings: Cyperus, post-emergence, 336 h, read-out: percent postemergent control
In short: as §1

[9] = test system: yellow nutsedge; assay: Control of aquatic plant species (paddy water); type: in vivo, Cyperus esculentus; settings: Cyperus, 216 h, nine days, read-out: Percent control; for pest or weed control at 1000 g/ha: 1.0 Kg/Ha
Experimental: as §2

[10] = test system: rape; assay: Postemergent control of plant species; type: in vivo, Brassica napus; settings: Brassica napus, post-emergence, 336 h, read-out: percent postemergent control
In short: as §1

[11] = test system: sorghum; assay: Postemergent control of plant species; type: in vivo, Sorghum vulgare; settings: Sorghum, post-emergence, 336 h, read-out: percent postemergent control
In short: as §1

[12] = test system: rice; assay: Control of aquatic plant species (paddy water); type: in vivo, Oryza sativa; settings: Oryza sativa, 216 h, nine days, read-out: Percent control; for pest or weed control at 1000 g/ha: 1.0 Kg/Ha
Experimental: as §2

[13] = test system: corn; assay: Postemergent control of plant species; type: in vivo, Zea mays; settings: Zea mays, post-emergence, 336 h, read-out: percent postemergent control
In short: as §1

[14] = test system: johnson grass; assay: Postemergent control of plant species; type: in vivo, Sorghum halepense; settings: Sorghum halepense, post-emergence, 336 h, read-out: percent postemergent control
In short: as §1

[15] = test system: cocklebur; assay: Postemergent control of plant species; type: in vivo, Xanthium spp.; settings: Xanthium strumarium, post-emergence, 336 h, read-out: percent postemergent control
In short: as §1

[16] = test system: soybean; assay: Postemergent control of plant species; type: in vivo, Glycine max.; settings: Glycine max, post-emergence, 336 h, read-out: percent postemergent control
In short: as §1

[17] = test system: velvetleaf; assay: Postemergent control of plant species; type: in vivo, Abutilon theophrasti; settings: Abutilon theophrasti, post-emergence, 336 h, read-out: percent postemergent control
In short: as §1

[18] = test system: sugar beet; assay: Postemergent control of plant species; type: in vivo, Beta saccharifera; settings: Beta vulgaris, post-emergence, 336 h, read-out: percent postemergent control
In short: as §1

[19] = test system: crabgrass; assay: Postemergent control of plant species; type: in vivo, Digitaria spp.; settings: Digitaria sanguinalis, post-emergence, 336 h, read-out: percent postemergent control
In short: as §1

[20] = test system: barnyardgrass; assay: Postemergent control of plant species; type: in vivo, Echinochloa crusgalli; settings: Echinochloa crus-galli, post-emergence, 336 h, read-out: percent postemergent control
In short: as §1

[21] = test system: barnyardgrass; assay: Control of aquatic plant species (paddy water); type: in vivo, Echinochloa crusgalli; settings: Echinochloa crus-galli, 216 h, nine days, read-out: Percent control; for pest or weed control at 1000 g/ha: 1.0 Kg/Ha
Experimental: as §2

[22] = test system: wild oats; assay: Postemergent control of plant species; type: in vivo, Avena fatua; settings: Avena fatua, post-emergence, 336 h, read-out: percent postemergent control
In short: as §1

[23] = test system: sugar beet; assay: Preemergent control of plant species; type: in vivo, Beta saccharifera; settings: Beta vulgaris, pre-emergence, 336 h; 0.25 lb/acre; read-out: percent preemergent control
In short: (§3)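 Seeds planted in good agricultural soil beds; active ingredients then applied to the bed surface as aqueous emulsion at listed rates. Beds kept two weeks in greenhouse with watering. Control scored against water-treated beds.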

[24] = test system: rape; assay: Preemergent control of plant species; type: in vivo, Brassica napus; settings: Brassica napus, pre-emergence, 336 h; 0.25 lb/acre; read-out: percent preemergent control
In short: as §3

[25] = test system: annual morning glory; assay: Preemergent control of plant species; type: in vivo, Ipomoea spp.; settings: Ipomoea, pre-emergence, 336 h; 0.25 lb/acre; read-out: percent preemergent control
In short: as §3

[26] = test system: rice; assay: Preemergent control of plant species; type: in vivo, Oryza sativa; settings: Oryza sativa, pre-emergence, 336 h; 0.25 lb/acre; read-out: percent preemergent control
In short: as §3

[27] = test system: wild oats; assay: Preemergent control of plant species; type: in vivo; settings: Avena fatua, pre-emergence, 336 h; 0.25 lb/acre; read-out: percent preemergent control
In short: as §3

[28] = test system: velvetleaf; assay: Preemergent control of plant species; type: in vivo, Abutilon theophrasti; settings: Abutilon theophrasti, pre-emergence, 336 h; 0.25 lb/acre; read-out: percent preemergent control
In short: as §3

[29] = test system: corn; assay: Preemergent control of plant species; type: in vivo, Zea mays; settings: Zea mays, pre-emergence, 336 h; 0.25 lb/acre; read-out: percent preemergent control
In short: as §3

[30] = test system: jimsonweed; assay: Preemergent control of plant species; type: in vivo, Datura stramonium; settings: Datura stramonium, pre-emergence, 336 h; 0.25 lb/acre; read-out: percent preemergent control
In short: as §3

[31] = test system: barnyardgrass; assay: Preemergent control of plant species; type: in vivo, Echinochloa crusgalli; settings: Echinochloa crus-galli, pre-emergence, 336 h; 0.25 lb/acre; read-out: percent preemergent control
In short: as §3

[32] = test system: cotton; assay: Preemergent control of plant species; type: in vivo, Gossypium spp.; settings: Gossypium hirsutum, pre-emergence, 336 h; 0.25 lb/acre; read-out: percent preemergent control
In short: as §3

[33] = test system: yellow nutsedge; assay: Preemergent control of plant species; type: in vivo, Cyperus esculentus; settings: Cyperus, pre-emergence, 336 h; 0.25 lb/acre; read-out: percent preemergent control
In short: as §3

[34] = test system: pigweed; assay: Postemergent control of plant species; type: in vivo, Amaranthus spp.; settings: Amaranthus retroflexus, post-emergence, 336 h, read-out: percent postemergent control
In short: as §1

[35] = test system: sorghum; assay: Preemergent control of plant species; type: in vivo, Sorghum vulgare; settings: Sorghum, pre-emergence, 336 h; 0.25 lb/acre; read-out: percent preemergent control
In short: as §3

[36] = test system: johnson grass; assay: Preemergent control of plant species; type: in vivo, Sorghum halepense; settings: Sorghum halepense, pre-emergence, 336 h; 0.25 lb/acre; read-out: percent preemergent control
In short: as §3

[37] = test system: yellow foxtail; assay: Preemergent control of plant species; type: in vivo, Setaria lutescens; settings: Setaria, pre-emergence, 336 h; 0.25 lb/acre; read-out: percent preemergent control
In short: as §3

[38] = test system: wheat; assay: Preemergent control of plant species; type: in vivo, Triticum aestivum; settings: Triticum aestivum, pre-emergence, 336 h; 0.25 lb/acre; read-out: percent preemergent control
In short: as §3

[39] = test system: soybean; assay: Preemergent control of plant species; type: in vivo, Glycine max.; settings: Glycine max, pre-emergence, 336 h; 0.25 lb/acre; read-out: percent preemergent control
In short: as §3

[40] = test system: nitrification of ammonium nitrogen; assay: Suppression of nitrification of ammonium nitrogen in soil; settings: 27° C.
In short: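 Value is % NH4-N remaining after a two-week, 27° C incubation of treated soil held at 1/3 bar tension moisture. Nitrate was measured with an ion-selective electrode after extraction with ammonium sulfate solution and 10 min shaking.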

| SMILES | pest or weed control at 500 ppm [1] | pest or weed control at 1000 g/ha [2] | plant injury at 500 ppm [3] | pest or weed control at 500 ppm [4] | plant injury at 500 ppm [5] | plant injury at 500 ppm [6] | pest or weed control at 500 ppm [7] | pest or weed control at 500 ppm [8] | pest or weed control at 1000 g/ha [9] | plant injury at 500 ppm [10] | plant injury at 500 ppm [11] | plant injury at 500 ppm [13] | pest or weed control at 500 ppm [14] | pest or weed control at 500 ppm [15] | plant injury at 500 ppm [16] | pest or weed control at 500 ppm [17] | plant injury at 500 ppm [18] | pest or weed control at 500 ppm [19] | pest or weed control at 500 ppm [20] | pest or weed control at 500 ppm [22] | other results |
| --- | --- | --- | --- | --- | --- | --- | --- | --- | --- | --- | --- | --- | --- | --- | --- | --- | --- | --- | --- | --- | --- |
| Cc1ccnc2nc(S(=O)(=O)Nc3c(Cl)cccc3Cl)nn12 [Compound 180] | 100% | 97% | 0% | 75% | 10% | 100% | 90% | 90% | 97% | 100% | 50% | 0% | 20% | 100% | 100% | 100% | 100% | 90% | 10% | 0% | pest or weed control at 250 g/ha ([2]; 0.25 Kg/Ha): 0%; pest or weed control at 250 g/ha ([9]; 0.25 Kg/Ha): 90%; pest or weed control at 250 g/ha ([12]; 0.25 Kg/Ha): 0%; pest or weed control at 1000 g/ha [12]: 80%; pest or weed control at 250 g/ha ([21]; 0.25 Kg/Ha): 90%; pest or weed control at 1000 g/ha [21]: 97% |
| Cc1ccn2nc(S(=O)(=O)Nc3c(C)nn(C)c3C(F)(F)F)nc2n1 [Compound 246] | 80% |  | 0% | 90% | 70% | 80% | 50% | 80% |  | 70% | 95% | 0% | 75% | 90% | 85% | 70% | 100% | 75% | 50% | 0% | plant injury at 280.212 g/ha [23]: 90%; plant injury at 280.212 g/ha [24]: 80%; pest or weed control at 280.212 g/ha [25]: 0%; plant injury at 280.212 g/ha [26]: 20%; pest or weed control at 280.212 g/ha [27]: 40%; pest or weed control at 280.212 g/ha [28]: 30%; plant injury at 280.212 g/ha [29]: 20%; pest or weed control at 280.212 g/ha [30]: 0%; pest or weed control at 280.212 g/ha [31]: 0%; plant injury at 280.212 g/ha [32]: 80%; pest or weed control at 280.212 g/ha [33]: 20%; pest or weed control at 500 ppm [34]: 100%; plant injury at 280.212 g/ha [35]: 95%; pest or weed control at 280.212 g/ha [36]: 20%; pest or weed control at 280.212 g/ha [37]: 20%; plant injury at 280.212 g/ha [38]: 10%; plant injury at 280.212 g/ha [39]: 90% |
| Cc1cc(C)n2nc(S(=O)(=O)Nc3ccccc3Cl)nc2n1 [Compound 7, 5,7-dimethyl-N-(2-chlorophenyl)-1,2,4-triazolo[1,5-a]pyrimidine-2-sulfonamide] | 20% | 93% | 0% | 25% | 15% |  | 90% | 65% | 90% | 90% | 65% | 0% | 50% | 100% | 55% | 65% | 100% | 0% | 35% | 0% | pest or weed control at 1000 g/ha [12]: 97%; pest or weed control at 500 ppm [34]: 60%; % NH4-N Remaining After 2 Weeks Incubation ([40]; 0.06 ppm): 17%; % NH4-N Remaining After 2 Weeks Incubation ([40]; 0.125 ppm): 30%; % NH4-N Remaining After 2 Weeks Incubation ([40]; 0.25 ppm): 62%; % NH4-N Remaining After 2 Weeks Incubation ([40]; 0.5 ppm): 73%; % NH4-N Remaining After 2 Weeks Incubation ([40]; 1 ppm): 80%; pest or weed control at 1000 g/ha [21]: 99% |
